This is an account of results in PubChem BioAssay (NCI).

The structures appear in SMILES notation.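 Test compounds were applied to cells in 96-well plates for 48 hours at 5 doses. Here, GI50 denotes the concentration required for 50% inhibition of growth. TGI: concentration producing complete growth inhibition.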 A value given as a limit tells only on which side of the number the result lay.

Among the test systems are DU-145 prostate; HCC-2998 colon; HOP-92 NSCLC; MDA-MB-231 breast; MDA-MB-435; NCI-H23 lung; SF-268 CNS; SK-OV-3 ovarian; SN12C renal; SW-620 colon.
What all share (assay): NCI-60 cell line screen, 48 h

As for `Cc1ccccc1CN1CC2=C(CCN(Cc3ccccc3)C2=O)N2CCN=C12`, the TGI was more than 100 µM with DU-145 prostate; more than 70.6 µM with HCC-2998 colon; more than 100 µM in the assay with HOP-92 NSCLC; more than 80 µM with MDA-MB-231 breast; more than 100 µM with MDA-MB-435; more than 100 µM in the assay with NCI-H23 lung. Also, the TGI with SF-268 CNS is more than 100 µM; in the assay on SK-OV-3 ovarian it was more than 52.6 µM; in the assay on SN12C renal it was more than 100 µM; in the assay on SW-620 colon, more than 100 µM.
Regarding `CCC1=C[C@@H]2CN(C1)Cc1c([nH]c3ccccc13)[C@@](C(=O)OC)(c1cc3c(cc1OC)N(C=O)[C@H]1[C@@](O)(C(=O)OC)[C@H](OC(C)=O)[C@]4(CC)[C@@H]5C[C@@H]5CN5CC[C@]31[C@@H]54)C2`, the GI50 with DU-145 prostate was less than 0.000625 µM; in the assay on HCC-2998 colon it was 0.00144 µM; in the assay on HOP-92 NSCLC, 0.00629 µM; with MDA-MB-231 breast, 0.00112 µM; in the assay with MDA-MB-435 it was less than 0.000625 µM; in the assay on NCI-H23 lung, 0.00318 µM. Further, the GI50 in the assay on SF-268 CNS is 0.00111 µM; in the assay on SK-OV-3 ovarian, less than 0.000625 µM; in the assay on SN12C renal, 0.0228 µM; with SW-620 colon, 0.000656 µM. Further, the TGI was more than 6.25 µM with HCC-2998 colon; 0.226 µM in the assay with HOP-92 NSCLC; less than 0.000625 µM in the assay on MDA-MB-435; more than 6.25 µM with NCI-H23 lung; more than 6.25 µM in the assay on SF-268 CNS; more than 6.25 µM with SN12C renal. In the assay on SW-620 colon, the TGI is more than 6.25 µM.
Consider `O=C1CCCCCCCC/C=C/CCC(c2ccco2)O1` (configuration not stated), for which the GI50 with DU-145 prostate is 57.2 µM; in the assay with HCC-2998 colon, more than 100 µM; in the assay with HOP-92 NSCLC, 50.5 µM; in the assay on MDA-MB-231 breast, 40 µM; with MDA-MB-435 it was 99.6 µM; in the assay on NCI-H23 lung, more than 100 µM. In addition, the GI50 was 44.3 µM in the assay on SF-268 CNS, more than 100 µM in the assay with SK-OV-3 ovarian, 31.7 µM in the assay on SN12C renal and 58.3 µM in the assay with SW-620 colon. Further, the TGI is more than 100 µM in the assay on DU-145 prostate; more than 100 µM in the assay with HCC-2998 colon; more than 100 µM with HOP-92 NSCLC; 97.6 µM with MDA-MB-231 breast; more than 100 µM with MDA-MB-435; more than 100 µM in the assay with NCI-H23 lung. Also, the TGI in the assay on SF-268 CNS, in the assay with SK-OV-3 ovarian, with SN12C renal and in the assay with SW-620 colon was more than 100 µM throughout.
`COc1c(C)c2c(c(O)c1C/C=C(\C)CCC(=O)OCCN1CCOCC1)C(=O)OC2`: the GI50 with DU-145 prostate is 0.415 µM; with HCC-2998 colon, 0.39 µM; in the assay with HOP-92 NSCLC, 5.18 µM; with MDA-MB-231 breast it was 3.48 µM; in the assay on MDA-MB-435, 0.201 µM; with NCI-H23 lung, 0.245 µM. The GI50 is 0.532 µM in the assay with SF-268 CNS, 0.462 µM with SK-OV-3 ovarian, 0.448 µM in the assay on SN12C renal and 0.142 µM in the assay with SW-620 colon. Besides, the TGI with DU-145 prostate, with HCC-2998 colon, with HOP-92 NSCLC, in the assay on MDA-MB-231 breast, in the assay on MDA-MB-435 and with NCI-H23 lung was more than 100 µM throughout. Also, the TGI with SF-268 CNS, in the assay on SK-OV-3 ovarian, with SN12C renal and in the assay on SW-620 colon was more than 100 µM throughout.
On to `COc1cc(Cl)cc(-c2nn(C(=O)NCCN3CCN(C)CC3)cc2-c2ccncc2)c1`, for which the GI50 in the assay on DU-145 prostate is 12.3 µM; in the assay on HCC-2998 colon, 17.5 µM; in the assay on HOP-92 NSCLC, 2.83 µM; with MDA-MB-231 breast it was 9.7 µM; in the assay on MDA-MB-435, 10.4 µM; with NCI-H23 lung it was 20.1 µM. The GI50 with SF-268 CNS is 7.35 µM; with SK-OV-3 ovarian it was 5.44 µM; in the assay with SN12C renal, 10.6 µM; in the assay with SW-620 colon it was 33.1 µM. Also, the TGI amounted to 66.5 µM with DU-145 prostate; 39.1 µM in the assay with HCC-2998 colon; 26.2 µM in the assay with HOP-92 NSCLC; 43.5 µM in the assay on MDA-MB-231 breast; 35 µM in the assay with MDA-MB-435; 82 µM in the assay with NCI-H23 lung. The TGI with SF-268 CNS was more than 100 µM; with SK-OV-3 ovarian it was 28.8 µM; in the assay on SN12C renal it was more than 100 µM; in the assay with SW-620 colon it was more than 100 µM.
For the molecule `CC1(C)NCCC[C@]2(C)[C@H]3C=CC4=C5C[C@](C)(CO)CC[C@]5(C)CC[C@@]4(C)[C@]3(C)CC[C@@H]12`, the GI50 with DU-145 prostate is 2.25 µM; in the assay on HCC-2998 colon it was 10.1 µM; with HOP-92 NSCLC it was 3.1 µM; in the assay with MDA-MB-231 breast it was 14.5 µM; in the assay with MDA-MB-435, 3.76 µM; with NCI-H23 lung, 3.15 µM. Also, the GI50 is 3.27 µM in the assay on SF-268 CNS, 14.5 µM with SK-OV-3 ovarian, 3.34 µM in the assay with SN12C renal and 5.76 µM in the assay on SW-620 colon. Moreover, the TGI in the assay with DU-145 prostate was found to be 5.02 µM; in the assay with HCC-2998 colon it was 23 µM; with HOP-92 NSCLC it was 14.6 µM; in the assay on MDA-MB-231 breast, 29.3 µM; in the assay with MDA-MB-435, 14 µM; in the assay on NCI-H23 lung, 12.5 µM. Also, the TGI in the assay with SF-268 CNS amounted to 11.6 µM; in the assay with SK-OV-3 ovarian it was 28.6 µM; in the assay on SN12C renal, 12 µM; with SW-620 colon, 18.8 µM.
